Source: patent US20170253607A1, “LONG-ACTING HIV PROTEASE INHIBITOR” (Shionogi & Co., Ltd., priority 2014, published 2017)

biological target: HIV-1 PR (Human immunodeficiency virus type 1 group M subtype B, UniProt P04585); assay: HIV-protease inhibitory activity assay (FRET peptide substrate); assay type: biochemical; conditions: Test Example 1
Method: Test Example 1: HIV-Protease Inhibitory Activity Assay
The HIV-1 PR assay was performed by using a FRET (Fluorescence Resonance Energy Transfer) peptide substrate (AnaSpec, Inc., Fremont, Calif.). Initially in the intact FRET peptide, the fluorescence of HiLyte Fluor 488 is quenched by QXL 520. Upon substrate cleavage by PR, the fluorescence is recovered and can be monitored. Test compounds diluted in DMSO was plated to the wells of 384-well plate. Then, mixed with assay buffer (0.1 mol/L NaAc containing 0.5 mol/L NaCl, 1 mmol/L EDTA, 1 mmol/L DTT, and 0.05% Tween 20, pH 4.8) in the presence or absence of HIV-1 PR (0.83 ng), and let it stand for 5 minutes at room temperature. Background fluorescence intensity was measured and let it stand for another 15 minutes at room temperature. The enzyme reaction was started by adding substrate diluted in assay buffer at final concentration of 2 μmol/L, and let it stand for 60 minutes at room temperature. After 60 minutes, the fluorescence intensity was measured. Fluorescence intensity was measured with excitation and emission wavelengths of 485 nm and 535 nm, respectively.
IC50 values were determined using non-linear regression four-parameter logistic equation, y=A+((B−A)/(1+((C/x)̂D))) where A=minimum inhibition, B=maximum inhibition, C=log IC50, D=slope factor, x=concentration of compound and y=% inhibition.

Compound | IC50
COc1ccc(S(=O)(=O)N(CC(C)C)CC(O)C(Cc2ccc(N3CCC(C(=O)Nc4sc5c(c4C(=O)O)CC(C)(C)CC5)C3)cc2)NC(=O)OC2COC3OCCC23)cc1 (centres unmarked) [Compound I-865] | 2.21 nM
COc1ccc(S(=O)(=O)N(CC(C)C)CC(O)C(Cc2ccc(NCc3ccccc3-c3ccc(OC(F)(F)F)cc3C(=O)O)cc2)NC(=O)OC2COC3(C)OCCC23)cc1 (centres unmarked) [Compound I-499] | 1.73 nM
COc1ccc(S(=O)(=O)N(CC(C)C)CC(O)C(Cc2ccc(N(Cc3ccccc3)Cc3ccccc3-c3sc4c(c3C(=O)O)CC(C)(C)CC4)cc2)NC(=O)OC2COC3(C)OCCC23)cc1 (centres unmarked) [Compound I-299] | 16.5 nM
COc1ccc(S(=O)(=O)N(CC(C)C)CC(O)C(Cc2ccc(N(C)Cc3cccc(C)c3C(=O)Nc3sc4c(c3C(=O)O)CC(C)(C)CC4)cc2)NC(=O)OC2COC3(C)OCCC23)cc1 (centres unmarked) [Compound I-747] | 4.35 nM
COc1ccc(S(=O)(=O)N(CC(C)C)CC(O)C(Cc2ccc(OCCn3nc(C)c(-c4sc5c(c4C(=O)O)CC(C)(C)CC5)c3C)cc2)NC(=O)OC2COC3OCCC23)cc1 (centres unmarked) [Compound I-810] | 1.03 nM
COc1ccc(S(=O)(=O)N(CC(C)C)CC(O)C(Cc2ccc(OCc3ccccc3-c3sc(N4CCCC(C)(C)C4)nc3C(=O)O)cc2)NC(=O)OC2COC3OCCC23)cc1 (centres unmarked) [Compound I-846] | 1.2 nM
CCCCCCCCCCCCCC(=O)Nc1ccc(CN(C)c2ccc(C[C@H](NC(=O)OC3CO[C@@]4(C)OCC[C@@H]34)[C@H](O)CN(CC(C)C)S(=O)(=O)c3ccc(OC)cc3)cc2)c(-c2sc3c(c2C(=O)O)CC(C)(C)CC3)c1 (some centres unmarked) [Compound I-910] | 7.84 nM
COc1ccc(S(=O)(=O)N(CC(C)C)CC(O)C(Cc2ccc(OC3CC(N(C)c4ccccc4-c4sc5c(c4C(=O)O)CC(C)(C)CC5)C3)cc2)NC(=O)OC2COC3(C)OCCC23)cc1 (centres unmarked) [Compound I-382] | 7.26 nM
COc1ccc(S(=O)(=O)N(CC(C)C)CC(O)C(Cc2ccc(OCc3ccccc3-n3nc(C(=O)O)c4c3CCC(C(F)(F)F)C4)cc2)NC(=O)OC2COC3(C)OCCC23)cc1 (centres unmarked) [Compound I-142] | 1.72 nM
COc1ccc(S(=O)(=O)N(CC(C)C)CC(O)C(Cc2ccc(N3Cc4nc5ccccc5cc4C3=O)cc2)NC(=O)OC2COC3OCCC23)cc1 (centres unmarked) [Compound I-888] | 2.1 nM
COc1ccc(S(=O)(=O)N(CC(C)C)CC(O)C(Cc2ccc(OC3CCCN(Cc4sc5c(c4C(=O)O)CC(C)(C)CC5)C3)cc2)NC(=O)OC2COC3(C)OCCC23)cc1 (centres unmarked) [Compound I-198] | 1.95 nM
COc1ccc(S(=O)(=O)N(CC(C)C)CC(O)C(Cc2ccc(OC3CC(N(C)c4ccccc4-c4sc5c(c4C(=O)O)CC(C)(C)CC5)C3)cc2)NC(=O)OC2COC3(C)OCCC23)cc1 (centres unmarked) [Compound I-364] | 5.39 nM
CC(C)CN(CC(O)C(Cc1ccc(OCc2nc(Oc3ccccc3)sc2C(=O)O)cc1)NC(=O)OC1COC2OCCC12)S(=O)(=O)c1ccc2ncsc2c1 (centres unmarked) [Compound I-842] | 0.69 nM
COc1ccc(S(=O)(=O)N(CC(C)C)CC(O)C(Cc2ccc(N(C)CC3CCCCC3c3sc4c(c3C(=O)O)CC(C)(C)CC4)cc2)NC(=O)OC2COC3(C)OCCC23)cc1 (centres unmarked) [Compound I-375] | 3.87 nM
COc1ccc(S(=O)(=O)N(CC(C)C)CC(O)C(Cc2ccc(NCc3cc(C)ccc3C(=O)Nc3sc4c(c3C(=O)O)CC(C)(C)CC4)cc2)NC(=O)OC2COC3(C)OCCC23)cc1 (centres unmarked) [Compound I-717] | 2.77 nM
COc1ccc(S(=O)(=O)N(CC(C)C)CC(O)C(Cc2ccc(OC3CCN(C(=O)c4sc5c(c4C(=O)O)CC(C)(C)CC5)C3)cc2)NC(=O)OC2COC3(C)OCCC23)cc1 (centres unmarked) [Compound I-245] | 2.01 nM
COc1ccc(S(=O)(=O)N(CC(C)C)C[C@@H](O)[C@H](Cc2ccc(NCC(=O)Nc3sc4c(c3C(=O)O)CC(C)(C)CC4)cc2)NC(=O)OC2CO[C@@]3(C)OCC[C@@H]23)cc1 (some centres unmarked) [Compound I-593] | 1.71 nM
COc1ccc(S(=O)(=O)N(CC(C)C)CC(O)C(Cc2ccc(N(C)Cc3ccc(OC)c(-c4sc5c(c4C(=O)O)CC(C)(C)CC5)c3)cc2)NC(=O)OC2COC3(C)OCCC23)cc1 (centres unmarked) [Compound I-464] | 2.52 nM
COc1ccc(S(=O)(=O)N(CC(C)C)CC(O)C(Cc2ccc(NCc3ccc(Oc4ccc(-c5sc6c(c5C(=O)O)CC(C)(C)CC6)cc4)cc3)cc2)NC(=O)OC2COC3(C)OCCC23)cc1 (centres unmarked) [Compound I-564] | 14.2 nM
COc1ccc(S(=O)(=O)N(CC(C)C)CC(O)C(Cc2ccc(OCc3ccccc3-c3ccc4c(O)c(-c5ccc(Oc6ccccc6)cc5)c(=O)[nH]c4c3)cc2)NC(=O)OC2COC3OCCC23)cc1 (centres unmarked) [Compound I-821] | 2.24 nM
COc1ccc(S(=O)(=O)N(CC(C)C)CC(O)C(Cc2ccc(OCc3ccccc3-c3sc4c(c3-c3noc(=O)[nH]3)CC(C)(C)CC4)cc2)NC(=O)OC2COC3OCCC23)cc1 (centres unmarked) [Compound I-815] | 1.63 nM

Compound | IC50
COc1ccc(S(=O)(=O)N(CC(C)C)CC(O)C(Cc2ccc(OC(C)(C)C(=O)NS(=O)(=O)c3cccc(-c4ccc(F)cc4F)c3)cc2)NC(=O)OC2COC3(C)OCCC23)cc1 (centres unmarked) [Compound I-57] | 1.07 nM
COc1ccc(S(=O)(=O)N(CC(C)C)CC(O)C(Cc2ccc(N(C)Cc3cc(N4CCC4)ccc3-c3sc4c(c3C(=O)O)CC(C)(C)CC4)cc2)NC(=O)OC2COC3(C)OCCC23)cc1 (centres unmarked) [Compound I-708] | 1.65 nM
COc1ccc(S(=O)(=O)N(CC(C)C)CC(O)C(Cc2ccc(N(C)Cc3cc(N4CC(C)(C)C4=O)ccc3-c3sc4c(c3C(=O)O)CC(C)(C)CC4)cc2)NC(=O)OC2COC3(C)OCCC23)cc1 (centres unmarked) [Compound I-730] | 2.84 nM
COc1ccc(S(=O)(=O)N(CC(C)C)CC(O)C(Cc2ccc(OC3CCN(c4ccc(C#N)cc4-c4sc5c(c4C(=O)O)CC(C)(C)CC5)C3)cc2)NC(=O)OC2COC3(C)OCCC23)cc1 (centres unmarked) [Compound I-200] | 5.08 nM
COc1ccc(S(=O)(=O)N(CC(C)C)CC(O)C(Cc2ccc(OC3CCCN(c4ccc(C#N)cc4-c4sc5c(c4C(=O)O)CC(C)(C)CC5)C3)cc2)NC(=O)OC2COC3(C)OCCC23)cc1 (centres unmarked) [Compound I-331] | 12.3 nM
COc1ccc(S(=O)(=O)N(CC(C)C)CC(O)C(Cc2ccc(NCC3(c4ccc(-c5sc6c(c5C(=O)O)CC(C)(C)CC6)cc4)CCCCC3)cc2)NC(=O)OC2COC3(C)OCCC23)cc1 (centres unmarked) [Compound I-369] | 15.8 nM
COc1ccc(S(=O)(=O)N(CC(C)C)CC(O)C(Cc2ccc(OC3CCCN(c4ccc(C#N)cc4-c4sc5c(c4C(=O)O)CC(C)(C)CC5)C3)cc2)NC(=O)OC2COC3(C)OCCC23)cc1 (centres unmarked) [Compound I-332] | 7.39 nM
COc1ccc(S(=O)(=O)N(CC(C)C)CC(O)C(Cc2ccc(N(C)C3CCN(c4ccccc4-c4sc5c(c4C(=O)O)CC(C)(C)CC5)C3)cc2)NC(=O)OC2COC3(C)OCCC23)cc1 (centres unmarked) [Compound I-239] | 2.74 nM
CCCN(Cc1ccccc1-c1sc2c(c1C(=O)O)CC(C)(C)CC2)c1ccc(CC(NC(=O)OC2COC3(C)OCCC23)C(O)CN(CC(C)C)S(=O)(=O)c2ccc(OC)cc2)cc1 (centres unmarked) [Compound I-462] | 3.33 nM
COc1ccc(S(=O)(=O)N(CC(C)C)CC(O)C(Cc2ccc(NCc3cc(Cl)ccc3C(=O)Nc3sc4c(c3C(=O)O)CC(C)(C)CC4)cc2)NC(=O)OC2COC3(C)OCCC23)cc1 (centres unmarked) [Compound I-656] | 6.57 nM
COc1ccc(S(=O)(=O)N(CC(C)C)CC(O)C(Cc2ccc(NCC3=C(c4sc5c(c4C(=O)O)CC(C)(C)CC5)C4CC(C3)C4(C)C)cc2)NC(=O)OC2COC3(C)OCCC23)cc1 (centres unmarked) [Compound I-626] | 4.58 nM
COc1ccc(S(=O)(=O)N(CC(C)C)CC(O)C(Cc2ccc(OCC3CCCN3Cc3sc4c(c3C(=O)O)CC(C)(C)CC4)cc2)NC(=O)OC2COC3(C)OCCC23)cc1 (centres unmarked) [Compound I-194] | 1.63 nM
COc1ccc(S(=O)(=O)N(CC(C)C)CC(O)C(Cc2ccc(NCc3cc(C(=O)O)c(C)o3)cc2)NC(=O)OC2COC3(C)OCCC23)cc1 (centres unmarked) [Compound I-317] | 1.86 nM
COc1ccc(S(=O)(=O)N(CC(C)C)CC(O)C(Cc2ccc(-c3ccccc3-c3sc4c(c3C(=O)O)CC(C)(C)CC4)cc2)NC(=O)OC2COC3(C)OCCC23)cc1 (centres unmarked) [Compound I-193] | 3.48 nM
COc1ccc(S(=O)(=O)N(CC(C)C)CC(O)C(Cc2ccc(N(C)Cc3ccc(C)cc3C(=O)Nc3sc4c(c3C(=O)O)CC(C)(C)CC4)cc2)NC(=O)OC2COC3(C)OCCC23)cc1 (centres unmarked) [Compound I-745] | 3.39 nM
COc1ccc(S(=O)(=O)N(CC(C)C)CC(O)C(Cc2ccc(NCc3cnc(OC)cc3-c3sc4c(c3C(=O)O)CC(C)(C)CC4)cc2)NC(=O)OC2COC3(C)OCCC23)cc1 (centres unmarked) [Compound I-278] | 1.83 nM
COc1ccc(S(=O)(=O)N(CC(C)C)CC(O)C(Cc2ccc(N3CCC(C(=O)N(C)c4sc5c(c4C(=O)O)CC(C)(C)CC5)C3)cc2)NC(=O)OC2COC3(C)OCCC23)cc1 (centres unmarked) [Compound I-646] | 2.92 nM
COc1ccc(S(=O)(=O)N(CC(C)C)CC(O)C(Cc2ccc(N(C)CC3CCCCC3c3sc4c(c3C(=O)O)CC(C)(C)CC4)cc2)NC(=O)OC2COC3(C)OCCC23)cc1 (centres unmarked) [Compound I-359] | 3.77 nM
COc1ccc(S(=O)(=O)N(CC(C)C)CC(O)C(Cc2ccc(NCc3ccc(-c4sc5c(c4C(=O)O)CC(C)(C)CC5)c(OC)c3)cc2)NC(=O)OC2COC3(C)OCCC23)cc1 (centres unmarked) [Compound I-554] | 1.77 nM
COc1ccc(S(=O)(=O)N(CC(C)C)CC(O)C(Cc2ccc(OCc3ncsc3-c3sc4c(c3C(=O)O)CC(C)(C)CC4)cc2)NC(=O)OC2COC3(C)OCCC23)cc1 (centres unmarked) [Compound I-89] | 1.11 nM
